± gives the standard deviation of the averaged measurements.
Tests used:
Assay in all cases: cell viability (CellTiter-Glo luminescence) relative to DMSO (fraction of DMSO control); higher = higher signal (more live cells for CellTiter-Glo)
Settings in all cases: 72 h
DU4475 = tested on: DU4475
Procedure: (§1)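 MOLM13, DU4475, HDQP1 and IGROV1 cells were treated with compounds in 384-well format for 72 h (KASUMI-1 in 96-well plates, RPMI + 10% FCS, 72 h). Viability was read with CellTiter-Glo and cell death with CellTox Green, both normalised to DMSO vehicle. Doses ranged 0.001-30 µM.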

IGROV1 = tested on: IGROV1
Procedure: as §1

MOLM13 = tested on: MOLM13
Procedure: as §1

KASUMI-1 = tested on: KASUMI-1
Procedure: as §1

HDQP1 = tested on: HDQP1
Procedure: as §1

SMILES	cell viability (DU4475; 0.01 µM)	cell viability (DU4475; 0.1 µM)	cell viability (DU4475; 0.3 µM)	cell viability (DU4475; 1 µM)	cell viability (DU4475; 3 µM)	cell viability (DU4475; 10 µM)	cell viability (DU4475; 30 µM)	cell viability (IGROV1; 0.01 µM)	cell viability (IGROV1; 0.1 µM)	cell viability (IGROV1; 0.3 µM)	cell viability (IGROV1; 1 µM)	cell viability (IGROV1; 3 µM)	cell viability (IGROV1; 10 µM)	cell viability (IGROV1; 30 µM)	cell viability (MOLM13; 0.01 µM)	cell viability (MOLM13; 0.1 µM)	cell viability (MOLM13; 0.3 µM)	cell viability (MOLM13; 1 µM)	cell viability (MOLM13; 3 µM)	cell viability (MOLM13; 10 µM)	cell viability (MOLM13; 30 µM)	cell viability (KASUMI-1; 0.000948683 µM)	cell viability (KASUMI-1; 0.003 µM)	cell viability (KASUMI-1; 0.00948683 µM)	cell viability (KASUMI-1; 0.03 µM)	cell viability (KASUMI-1; 0.0948683 µM)	cell viability (KASUMI-1; 0.3 µM)	cell viability (KASUMI-1; 0.948683 µM)	cell viability (KASUMI-1; 3 µM)	cell viability (KASUMI-1; 9.48683 µM)	cell viability (KASUMI-1; 30 µM)	cell viability (HDQP1; 0.01 µM)	cell viability (HDQP1; 0.1 µM)	cell viability (HDQP1; 0.3 µM)	cell viability (HDQP1; 1 µM)	cell viability (HDQP1; 3 µM)	cell viability (HDQP1; 10 µM)	cell viability (HDQP1; 30 µM)
CC(C)(C)c1ccc(C(=O)Nc2cc(-c3ccccc3)n[nH]2)cc1 [3i-1247]	1.02 ± 0.037	0.998 ± 0.027	0.955 ± 0.025	0.873 ± 0.027	0.446 ± 0.053	0.028 ± 0.0065	0.00743 ± 0.006	0.974 ± 0.071	0.955 ± 0.11	0.803 ± 0.035	0.739 ± 0.034	0.467 ± 0.062	0.365 ± 0.019	0.243 ± 0.049	0.858 ± 0.073	0.388 ± 0.12	0.19 ± 0.062	0.0317 ± 0.0089	0.00462 ± 0.0058	0.00157 ± 0.00088	0.000514 ± 0.00038	1.26 ± 0.087	1.338 ± 0.0028	1.48 ± 0.063	1.411 ± 0.0049	1.38 ± 0.063	1.37 ± 0.064	1.2 ± 0.041	0.5738 ± 0.0019	0.1148 ± 0.00061	0.0202 ± 0.0019	0.999 ± 0.019	1 ± 0.016	0.943 ± 0.046	0.877 ± 0.062	0.786 ± 0.061	0.719 ± 0.071	0.584 ± 0.12
CC(C)(C)c1cc(NC(=O)Nc2ccc(-c3cn4c(n3)sc3cc(OCCN5CCOCC5)ccc34)cc2)no1 [quizartinib]	1 ± 0.03	0.813 ± 0.038	0.336 ± 0.06	0.196 ± 0.052	0.0647 ± 0.034	0.317 ± 0.075	0.0882 ± 0.042	1.08 ± 0.081	1.07 ± 0.1	0.721 ± 0.12	0.633 ± 0.12	0.468 ± 0.12	0.614 ± 0.093	0.384 ± 0.069	0.00342 ± 0.00075	0.00261 ± 0.00061	0.00141 ± 0.0005	0.00194 ± 0.00081	0.000901 ± 0.00082	0.00066 ± 0.00036	0.000483 ± 0.00064											0.984 ± 0.052	1.01 ± 0.051	0.87 ± 0.054	0.807 ± 0.021	0.716 ± 0.088	0.84 ± 0.095	0.69 ± 0.13
C=CCCn1cc(-c2cc(C(=O)N3CCOCC3)cc3c2ncn3C)c2cc[nH]c2c1=O [GNE-371]	1.01 ± 0.017	1.01 ± 0.026	1.02 ± 0.023	1.01 ± 0.029	1.02 ± 0.027	1.03 ± 0.036	1.05 ± 0.051	1.07 ± 0.11	1.02 ± 0.07	0.935 ± 0.064	0.975 ± 0.052	0.95 ± 0.11	0.931 ± 0.043	0.958 ± 0.054	1.01 ± 0.041	0.989 ± 0.05	0.986 ± 0.025	0.994 ± 0.031	0.986 ± 0.056	0.95 ± 0.067	0.928 ± 0.091											1.04 ± 0.04	1.03 ± 0.047	1.02 ± 0.036	0.975 ± 0.04	0.971 ± 0.055	0.999 ± 0.056	0.979 ± 0.047
